The values below come from US7629141B2, “Essential and important genes of Pseudomonas aeruginosa and the use thereof to design or identify antibacterial agents” (priority 2001, dated 2009).

In one assay the target is E. coli LpxC enzyme (Escherichia coli, UniProt P0A725). The conditions noted are these: cited from earlier work.
The subject of assay [1] is EnvA1 mutant protein (LpxC, His 19 replaced by Serine). The conditions noted are these: His 19 replaced by a Serine; cited from earlier work.
In the next assay the target is LpxC from P. aeruginosa (Pseudomonas aeruginosa, UniProt P47205). The conditions noted are these: cited from earlier work.
In assay [2] the test system is P. aeruginosa PAO 200 (MexAB-OprM efflux mutant). Briefly: Growth curves with inhibitor, efflux pump mutant. It counts as cell-based. As to conditions: FIG. 4. An excerpt: L-161, 240 is a substrate for the major drug efflux pump of P. aeruginosa. […] However the only one that is constitutively expressed to a high degree in the wild type strains is MexAB-OprM (Kohler, T., M. Michea-Hamzehpour, and U. Henze. 1997. Characterization of MexE-MexF-OprN, a positively regulated multidrug efflux system of Pseudomonas aeruginosa. Mol. Microbiol. 23: 345-354). Therefore, mutants of this efflux system can be used to evaluate the consequences of diminished efflux pump activity. These mutants would be expected to be highly sensitive to a number of antibiotics.

For assay [3], the system named is E. coli. As to conditions: lethal intraperitoneal dose of E. coli; cited from earlier work.
Assay [4] relates to E. coli JBK-1 carrying lpxC from P. aeruginosa. The protocol:
(§1) Growth curves. Bacterial cultures were prepared by diluting stationary phase overnight cultures to an OD600 of 0.1 in 5 ml of LB. […] The cultures were incubated with shaking and 0.8 ml was taken for OD600 readings over the course of the experiment. DH5α, PA01, and PA0200 (Schweizer, H. P. 1998. Intrinsic resistance to inhibitors of fatty acid biosynthesis in Pseudomonas aeruginosa is due to efflux: application of a novel technique for generation of unmarked chromosomal mutations for the study of efflux systems. Antimicrob. Agents Chemother. 42: 394-398) were all grown at 37° C. In the cases where temperature sensitive JBK strains were being assayed, the cultures were grown at 42° C. for both the overnight and the time course cultures.
(§2) The E. coli strain JBK-1/pKD6 contains the chromosomal lpxC gene disrupted with a kan element and a wild type copy of E. coli lpxC on the temperature-sensitive replicon pKD6. The strain was constructed as described by Sorensen et al., 1996. Since lpxC is essential for growth, this strain is not viable at 42° C. because the functional copy is on the temperature sensitive replicon.

Assay [5] has as its system E. coli. The conditions noted are these: cited from earlier work.
The next assay concerns E. coli DH5α. The experiment in a line: Growth curves with inhibitor, E. coli. The assay is classed as cell-based.
In another assay the test system is P. aeruginosa. As to conditions: cited from earlier work.
Assay [6] relates to 'promoter swapped' P. aeruginosa lpxC mutants. The experiment in a line: MIC determinations for 'promoter swapped' mutants. The assay is classed as cell-based. The protocol:
MIC determinations for ‘promoter swapped’ mutants. Single colonies of DH5α, PA01 and each promoter swap strain were picked and grown in LB at 37° C. with shaking for approximately 4 hours. Assuming that an OD600 reading of 1.0 is equivalent to 10^9 cells/ml, dilutions were made of all cultures to 5×10^5 cells/ml. 200 μl of each diluted culture was added to each well where a two-fold serial dilution of inhibitor had been placed. The 96-well plates were incubated at 37° C. overnight and their OD600 determined using the Spectramax Plus (Molecular Devices) plate reader.
To confirm the effect of the arabinose-sensitive promoter in regulating the lpxC expression in the swapped mutants, MIC determinations were performed as above, except that arabinose was added to induce expression of the chromosomal locus and override the effects of the plasmid borne lpxC. In this case the stationary-phase overnight bacterial culture was diluted to 5×10^5 cells/ml in LB containing Arabinose to a final concentration of 0.2% (a 20% stock made up in water).
Using the ‘promoter swap’ technique as described in the methods, it was possible to replace expression from the wild type chromosomal copy of P. aeruginosa lpxC, with expression solely from a plasmid borne copy. […]

Assay [7] concerns E. coli JBK-1 carrying lpxC from E. coli. Briefly: Growth at 42° C. of E. coli JBK-1 carrying the lpxC copy from E. coli. The assay is classed as cell-based. The conditions noted are these: data not shown. Here is the method: as §1, §2
In assay [8] the test system is P. aeruginosa PA01. The experiment in a line: Growth curves with inhibitor, P. aeruginosa wild type. It counts as cell-based.
Method: (§3) Growth curves. Bacterial cultures were prepared by diluting stationary phase overnight cultures to an OD600 of 0.1 in 5 ml of LB. The inhibitor, L-161,240, was resuspended in DMSO to a final concentration of 10 mg/ml and added to the bacterial cultures to a final concentration of 50 μg/ml or 10 μg/ml. In the samples without inhibitor, DMSO was added to keep the final concentration of DMSO equivalent between samples. The cultures were incubated with shaking and 0.8 ml was taken for OD600 readings over the course of the experiment.
For assay [9], the system named is P. aeruginosa PA01.
Method: Polymixin B nonapeptide (Sigma) was prepared as a suspension in DMSO at 3 mg/ml final concentration. Erythromycin and Tetracycline were resuspended in DMSO to a final concentration of 250 mg/ml and 125 mg/ml, respectively. L-161,240 was prepared as above in DMSO to a final concentration of 10 mg/ml. These DMSO antibiotic solutions were individually added to LB to the appropriate final concentration and mixed. Polymixin B nonapeptide was then added to the appropriate samples and mixed. DMSO was added to each sample to keep the final concentration of DMSO equivalent between samples. A stationary phase overnight culture of PA01 was added to each sample to bring the final concentration to 0.1 OD600. Samples were removed for OD600 determinations every 1-2 hours for 6.5 hours and the data from these time points were plotted.
In order to determine the effect of outer membrane exclusion of L-161,240, we exposed P. aeruginosa to PMBN in combination with L-161,240, and with other lipophilic antibiotics as positive controls.

LpxC from P. aeruginosa, sequence (P47205 whole entry): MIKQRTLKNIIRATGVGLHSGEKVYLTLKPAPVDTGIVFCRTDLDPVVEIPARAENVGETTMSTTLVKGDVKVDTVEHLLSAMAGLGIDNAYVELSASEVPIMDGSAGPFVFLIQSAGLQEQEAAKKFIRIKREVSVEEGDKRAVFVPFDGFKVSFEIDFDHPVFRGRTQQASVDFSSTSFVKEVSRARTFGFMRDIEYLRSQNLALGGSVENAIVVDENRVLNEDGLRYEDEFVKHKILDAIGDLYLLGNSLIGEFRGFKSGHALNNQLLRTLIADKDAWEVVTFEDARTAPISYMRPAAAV
E. coli LpxC enzyme, sequence (P0A725 whole entry): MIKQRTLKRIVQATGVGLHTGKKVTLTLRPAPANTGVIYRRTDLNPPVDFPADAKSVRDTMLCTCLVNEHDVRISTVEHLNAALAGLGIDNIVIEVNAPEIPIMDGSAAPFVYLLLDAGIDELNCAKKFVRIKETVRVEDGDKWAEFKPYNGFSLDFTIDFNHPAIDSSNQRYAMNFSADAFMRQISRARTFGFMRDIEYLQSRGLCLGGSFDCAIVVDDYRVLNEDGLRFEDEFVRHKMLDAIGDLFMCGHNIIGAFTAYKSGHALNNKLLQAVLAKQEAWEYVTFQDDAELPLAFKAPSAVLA
Method for E. coli DH5α: as §3

Take `O=C(O)CN(CCN(CC(=O)O)CC(=O)O)CC(=O)O` [EDTA]: at E. coli LpxC enzyme, the “sensitivity of E. coli LpxC enzyme to EDTA” value was “not sensitive”. Further, the “sensitivity of envA1 mutant LpxC to EDTA” value in assay [1] was “sensitive”. In addition, the “EDTA concentration significantly inhibiting P. aeruginosa LpxC enzyme” value on LpxC from P. aeruginosa was not above 2 µM.

With `CCCc1cc(C2=N[C@@H](C(=O)NO)CO2)cc(OC)c1OC` [L-161,240], in [2], the “sensitivity of efflux mutant PAO 200 compared with wild type” value is “not more sensitive”. The “outcome in mice infected with lethal dose of E. coli” value with E. coli [3] is “cured”. For the same compound, in [4] (42° C., data not shown), the “inhibitor concentration to which JBK-1 carrying P. aeruginosa lpxC is resistant” value is more than 50 µg/mL. Besides, the “resistance level relative to the MIC of the wild type organisms” value in assay [4] (JBK-1 carrying P. aeruginosa lpxC) was “about 50 times”. Besides, the “minimal inhibitory concentration against E. coli” value with E. coli [5] is “about 1 microgram per milliliter”. The “prevention of growth of E. coli” value in the assay on E. coli DH5α is “effective in preventing growth”. For the same compound, in the assay on P. aeruginosa, the “effect on bacterial growth of P. aeruginosa” value was “no effect on bacterial growth”. For the same compound, the “sensitivity of all promoter swap transformants with chromosomal lpxC induced” value in assay [6] (LB containing 0.2% arabinose, vector with E. coli or P. aeruginosa lpxC) is recorded as “resistant to killing”. Also, the “sensitivity of P. aeruginosa expressing only E. coli LpxC versus wild type / P. aeruginosa enzyme” value in [6] (promoter swap, native lpxC shut off, plasmid-borne E. coli lpxC, no arabinose) is listed as “much more sensitive”. Further, in assay [7], the “sensitivity of JBK-1 carrying E. coli lpxC to killing” value was “still sensitive to killing by a slightly higher concentration”. Also, the “inhibition of LpxC from P. aeruginosa” value on LpxC from P. aeruginosa is “only at very high concentrations, and even then it did so poorly”. Moreover, the “prevention of growth of P. aeruginosa” value in the assay on P. aeruginosa PA01 [8] is reported as “completely ineffective”. For the same compound, the “sensitivity of P. aeruginosa in combination with PMBN” value with P. aeruginosa PA01 [9] is given as “remained unchanged”.

As for `CN(C)[C@@H]1C(O)=C(C(N)=O)C(=O)[C@@]2(O)C(O)=C3C(=O)c4c(O)cccc4[C@@](C)(O)[C@H]3C[C@@H]12` [tetracycline], the “lowering of MIC for P. aeruginosa by PMBN” value in the assay with P. aeruginosa PA01 [9] is given as “more than 16 fold”.
